The text below walks through data of patent publication US11981658B2, “Substituted aminopyridine compounds as EGFR inhibitors” (YUHAN CORPORATION, priority 2021, dated 2024).

One assay concerns the target EGFR wildtype (WT) (Homo sapiens, UniProt P00533). Put plainly: Biochemical EGFR kinase inhibition assay (Lance Ultra TR-FRET), wildtype. In outline: (§1)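 Kinase activity is measured by TR-FRET phosphopeptide detection. Compounds span 0.003 μM to 10 μM; the 1 h reaction at room temperature is quenched with EDTA, then labelled antibody (2 nM) is incubated 60 min before reading.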
(In TR-FRET formats the signal depends on donor and acceptor labels being close together.)

The target in a further assay is EGFR L858R/C797S (Homo sapiens, UniProt P00533, C797S/L858R). Put plainly: Biochemical EGFR kinase inhibition assay (Lance Ultra TR-FRET), double mutant L858R/C797S. Put shortly: as §1
Sequence of EGFR L858R/C797S (P00533 25-1210 C797S/L858R): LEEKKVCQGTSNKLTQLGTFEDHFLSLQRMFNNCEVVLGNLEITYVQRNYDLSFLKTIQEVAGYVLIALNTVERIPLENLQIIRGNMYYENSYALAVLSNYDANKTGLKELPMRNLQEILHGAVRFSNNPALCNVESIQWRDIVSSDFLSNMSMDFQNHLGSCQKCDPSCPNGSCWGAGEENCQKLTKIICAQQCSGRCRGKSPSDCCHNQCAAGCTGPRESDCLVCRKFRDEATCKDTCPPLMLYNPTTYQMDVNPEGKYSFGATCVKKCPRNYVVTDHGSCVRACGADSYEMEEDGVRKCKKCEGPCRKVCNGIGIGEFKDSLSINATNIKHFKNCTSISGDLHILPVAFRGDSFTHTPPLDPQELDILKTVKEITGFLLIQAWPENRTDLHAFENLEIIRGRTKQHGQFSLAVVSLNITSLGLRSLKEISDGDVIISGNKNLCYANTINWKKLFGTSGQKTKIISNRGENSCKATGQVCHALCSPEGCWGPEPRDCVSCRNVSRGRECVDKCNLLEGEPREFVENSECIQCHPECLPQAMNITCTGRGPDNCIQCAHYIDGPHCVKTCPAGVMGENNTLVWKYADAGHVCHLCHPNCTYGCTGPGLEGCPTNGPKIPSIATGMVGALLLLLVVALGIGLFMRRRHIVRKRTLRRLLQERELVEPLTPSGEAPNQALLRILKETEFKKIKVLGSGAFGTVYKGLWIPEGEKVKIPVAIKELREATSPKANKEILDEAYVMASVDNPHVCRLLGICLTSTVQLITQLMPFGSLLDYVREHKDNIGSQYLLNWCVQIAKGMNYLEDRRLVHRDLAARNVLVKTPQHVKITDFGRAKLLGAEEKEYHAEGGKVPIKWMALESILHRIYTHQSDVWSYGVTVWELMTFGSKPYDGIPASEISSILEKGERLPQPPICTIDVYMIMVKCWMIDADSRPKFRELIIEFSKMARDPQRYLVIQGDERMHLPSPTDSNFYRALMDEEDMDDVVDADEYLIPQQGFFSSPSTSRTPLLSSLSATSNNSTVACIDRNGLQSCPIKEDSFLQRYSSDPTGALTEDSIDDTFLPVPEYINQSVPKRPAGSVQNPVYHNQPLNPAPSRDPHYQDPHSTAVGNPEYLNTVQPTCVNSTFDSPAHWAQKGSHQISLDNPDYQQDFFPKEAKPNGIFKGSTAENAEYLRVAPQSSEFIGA
In another assay the target is EGFR Del19/C797S (Homo sapiens, UniProt P00533, C797S/DEL746-750). Description: Biochemical EGFR kinase inhibition assay (Lance Ultra TR-FRET), double mutant del19/C797S. Put shortly:
as §1

A further assay deals with EGFR Del19/T790M/C797S (Homo sapiens, UniProt P00533, C797S/DEL746-750/T790M). Description: Biochemical EGFR kinase inhibition assay (Lance Ultra TR-FRET), triple mutant del19/T790M/C797S. In outline:
as §1

A further assay deals with EGFR L858R/T790M/C797S (Homo sapiens, UniProt P00533, C797S/L858R/T790M). Put plainly: Biochemical EGFR kinase inhibition assay (Lance Ultra TR-FRET), triple mutant L858R/T790M/C797S. Put shortly:
as §1

Setting [1] is: Km ATP, read-out: IC50 WT (nM) Km ATP.
Where [2] appears, read: IC50 L858R/C797S (nM), 100 μM ATP.
The mark [3] stands for this setting: Km ATP, read-out: IC50 L858R/C797S (nM) Km ATP.
Setting [4] is: IC50 Del19/C797S (nM), 100 μM ATP.
The mark [5] stands for this setting: Km ATP, read-out: IC50 Del19/C797S (nM) Km ATP.
Setting [6] is: IC50 Del19/T790M/C797S (nM), 100 μM ATP.
Setting [7] is: Km ATP, read-out: IC50 Del19/T790M/C797S (nM) Km ATP.
Setting [8] is: IC50 L858R/T790M/C797S (nM), 100 μM ATP.
Where [9] appears, read: Km ATP, read-out: IC50 L858R/T790M/C797S (nM) Km ATP.
The mark [10] stands for this setting: Km ATP, read-out: IC50 WT (nM), Km ATP.
[11] abbreviates: Km ATP, read-out: IC50 L858R/C797S (nM), Km ATP.
[12] abbreviates: Km ATP, read-out: IC50 Del19/C797S (nM), Km ATP.
Where [13] appears, read: Km ATP, read-out: IC50 Del19/T790M/C797S (nM), Km ATP.
Where [14] appears, read: Km ATP, read-out: IC50 L858R/T790M/C797S (nM), Km ATP.
[15] abbreviates: ATP at Km, read-out: IC50 WT (nM), Km ATP.
Setting [16] is: ATP at Km, read-out: IC50 L858R/C797S (nM), Km ATP.
Setting [17] is: ATP at Km, read-out: IC50 Del19/C797S (nM), Km ATP.
Where [18] appears, read: ATP at Km, read-out: IC50 Del19/T790M/C797S (nM), Km ATP.
[19] abbreviates: ATP at Km, read-out: IC50 L858R/T790M/C797S (nM), Km ATP.

Where two headings read alike, the source gives them in different places.

Sequence of EGFR L858R/T790M/C797S (P00533 25-1210 T790M/C797S/L858R): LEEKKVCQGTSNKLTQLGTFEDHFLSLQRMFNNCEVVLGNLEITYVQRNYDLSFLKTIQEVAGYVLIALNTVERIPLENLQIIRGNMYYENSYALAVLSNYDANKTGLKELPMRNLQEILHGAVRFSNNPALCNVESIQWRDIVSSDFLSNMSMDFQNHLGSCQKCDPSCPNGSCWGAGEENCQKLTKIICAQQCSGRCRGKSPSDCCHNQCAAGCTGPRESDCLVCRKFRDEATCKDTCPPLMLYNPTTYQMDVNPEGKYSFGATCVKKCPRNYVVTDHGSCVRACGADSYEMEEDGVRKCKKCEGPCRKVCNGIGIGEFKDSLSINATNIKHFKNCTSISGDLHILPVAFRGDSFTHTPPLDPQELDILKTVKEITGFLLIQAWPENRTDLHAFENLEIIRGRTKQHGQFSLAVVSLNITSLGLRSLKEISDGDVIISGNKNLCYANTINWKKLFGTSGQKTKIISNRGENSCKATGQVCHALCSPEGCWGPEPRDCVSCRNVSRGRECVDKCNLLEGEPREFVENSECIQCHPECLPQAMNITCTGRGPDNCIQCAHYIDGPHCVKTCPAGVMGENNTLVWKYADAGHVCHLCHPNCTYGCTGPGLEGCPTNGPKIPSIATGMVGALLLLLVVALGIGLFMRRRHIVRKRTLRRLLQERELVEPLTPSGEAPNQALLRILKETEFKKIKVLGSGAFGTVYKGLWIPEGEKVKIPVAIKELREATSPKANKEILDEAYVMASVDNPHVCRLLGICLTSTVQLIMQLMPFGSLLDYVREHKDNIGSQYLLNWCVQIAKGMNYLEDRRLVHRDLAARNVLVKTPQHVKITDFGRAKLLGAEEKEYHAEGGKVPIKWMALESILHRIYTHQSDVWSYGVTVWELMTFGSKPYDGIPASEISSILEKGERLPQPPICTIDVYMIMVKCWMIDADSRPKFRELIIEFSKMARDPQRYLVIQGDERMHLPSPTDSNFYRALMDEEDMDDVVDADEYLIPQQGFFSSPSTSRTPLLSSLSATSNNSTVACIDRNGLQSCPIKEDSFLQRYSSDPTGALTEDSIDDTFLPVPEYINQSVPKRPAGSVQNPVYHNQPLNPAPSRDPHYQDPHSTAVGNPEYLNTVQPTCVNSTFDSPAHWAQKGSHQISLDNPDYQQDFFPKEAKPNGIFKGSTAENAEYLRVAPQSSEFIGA
Sequence of EGFR Del19/C797S (P00533 with tags, fused parts or gaps DEL746-750/C797S): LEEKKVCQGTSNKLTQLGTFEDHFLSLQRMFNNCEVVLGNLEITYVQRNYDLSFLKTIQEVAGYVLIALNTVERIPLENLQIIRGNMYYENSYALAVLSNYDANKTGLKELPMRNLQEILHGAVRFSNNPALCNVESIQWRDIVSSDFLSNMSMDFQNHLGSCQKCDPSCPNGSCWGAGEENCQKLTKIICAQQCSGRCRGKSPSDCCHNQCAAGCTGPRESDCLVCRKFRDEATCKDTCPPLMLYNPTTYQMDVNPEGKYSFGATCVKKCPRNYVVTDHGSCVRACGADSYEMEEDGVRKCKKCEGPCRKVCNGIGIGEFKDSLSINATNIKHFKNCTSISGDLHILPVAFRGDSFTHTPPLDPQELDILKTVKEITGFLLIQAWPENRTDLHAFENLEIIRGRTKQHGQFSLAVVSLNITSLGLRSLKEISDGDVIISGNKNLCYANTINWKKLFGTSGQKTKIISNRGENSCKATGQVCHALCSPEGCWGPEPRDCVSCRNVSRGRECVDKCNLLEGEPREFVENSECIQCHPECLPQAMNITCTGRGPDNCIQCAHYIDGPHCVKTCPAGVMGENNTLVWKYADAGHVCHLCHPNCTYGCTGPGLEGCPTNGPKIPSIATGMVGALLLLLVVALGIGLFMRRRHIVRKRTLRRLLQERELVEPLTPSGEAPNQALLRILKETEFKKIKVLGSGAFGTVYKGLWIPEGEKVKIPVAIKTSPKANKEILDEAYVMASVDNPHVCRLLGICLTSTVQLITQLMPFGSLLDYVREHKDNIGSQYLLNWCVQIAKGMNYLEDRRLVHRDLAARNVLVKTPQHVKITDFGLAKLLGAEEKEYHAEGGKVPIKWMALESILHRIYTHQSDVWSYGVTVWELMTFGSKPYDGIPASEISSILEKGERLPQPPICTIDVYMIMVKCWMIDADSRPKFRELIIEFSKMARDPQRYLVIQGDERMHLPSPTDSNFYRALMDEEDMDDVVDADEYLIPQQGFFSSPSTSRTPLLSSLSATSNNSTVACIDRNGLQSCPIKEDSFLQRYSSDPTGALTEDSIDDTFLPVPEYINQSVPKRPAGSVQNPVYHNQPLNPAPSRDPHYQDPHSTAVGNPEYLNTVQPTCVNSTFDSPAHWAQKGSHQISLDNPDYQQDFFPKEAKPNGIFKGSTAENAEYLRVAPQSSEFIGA
Sequence of EGFR Del19/T790M/C797S (P00533 with tags, fused parts or gaps DEL746-750/T790M/C797S): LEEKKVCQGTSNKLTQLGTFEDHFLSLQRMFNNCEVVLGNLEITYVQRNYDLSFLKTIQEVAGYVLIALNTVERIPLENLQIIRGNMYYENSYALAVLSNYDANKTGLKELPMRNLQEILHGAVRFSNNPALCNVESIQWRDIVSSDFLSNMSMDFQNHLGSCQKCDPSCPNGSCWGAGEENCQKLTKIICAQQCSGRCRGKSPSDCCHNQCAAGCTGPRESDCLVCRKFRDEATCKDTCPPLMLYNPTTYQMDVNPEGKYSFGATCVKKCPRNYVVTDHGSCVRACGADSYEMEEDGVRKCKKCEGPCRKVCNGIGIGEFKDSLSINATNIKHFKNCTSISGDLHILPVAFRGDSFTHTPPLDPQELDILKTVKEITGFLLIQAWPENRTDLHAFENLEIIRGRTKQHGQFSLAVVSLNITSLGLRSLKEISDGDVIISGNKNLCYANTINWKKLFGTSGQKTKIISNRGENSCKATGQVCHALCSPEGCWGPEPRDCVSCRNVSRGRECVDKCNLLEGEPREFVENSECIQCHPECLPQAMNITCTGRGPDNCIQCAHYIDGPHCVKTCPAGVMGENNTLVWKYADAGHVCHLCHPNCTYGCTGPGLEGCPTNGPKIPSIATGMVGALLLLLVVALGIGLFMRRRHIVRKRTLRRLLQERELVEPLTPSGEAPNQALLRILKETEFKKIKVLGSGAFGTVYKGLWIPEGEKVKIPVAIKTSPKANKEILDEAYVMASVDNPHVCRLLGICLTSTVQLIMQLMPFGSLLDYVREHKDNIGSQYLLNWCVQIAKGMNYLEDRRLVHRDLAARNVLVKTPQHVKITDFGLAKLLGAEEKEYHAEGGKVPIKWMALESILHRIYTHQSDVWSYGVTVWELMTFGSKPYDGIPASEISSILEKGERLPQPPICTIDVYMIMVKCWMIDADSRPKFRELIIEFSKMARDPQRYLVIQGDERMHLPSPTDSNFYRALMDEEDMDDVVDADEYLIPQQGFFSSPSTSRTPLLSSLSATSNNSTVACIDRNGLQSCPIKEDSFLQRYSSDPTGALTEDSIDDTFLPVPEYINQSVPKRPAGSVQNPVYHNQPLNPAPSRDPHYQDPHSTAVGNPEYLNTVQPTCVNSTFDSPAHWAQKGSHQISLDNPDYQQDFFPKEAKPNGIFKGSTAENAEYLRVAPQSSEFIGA

Consider `Cn1cc(C#Cc2cnc(Nc3ccnc(-c4cnn(S(=O)(=O)C5CC5)c4)n3)cc2N[C@H]2CC[C@@H](NCCF)CC2)cn1` [Example 80, N^2-(2-(1-(Cyclopropylsulfonyl)-1H-pyrazol-4-yl)pyrimidin-4-yl)-N^4-((1s, 4s)-4-((2-fluoroethyl)amino)cyclohexyl)-5-((1-methyl-1H-pyrazol-4-yl)ethynyl)pyridine-2,4-diamine], for which the IC50 was over 10000 nM against EGFR wildtype (WT) (IC50 WT (nM), 100 μM ATP); 80.1 nM on EGFR wildtype (WT) (setting [1]); 137 nM against EGFR L858R/C797S (setting [2]); 16.4 nM at EGFR L858R/C797S (setting [3]); 16.1 nM on EGFR Del19/C797S (setting [4]); 12.3 nM on EGFR Del19/C797S (setting [5]). Besides, the IC50 at EGFR Del19/T790M/C797S (setting [6]) came out at 0.6 nM; on EGFR Del19/T790M/C797S (setting [7]), 0.5 nM; against EGFR L858R/T790M/C797S (setting [8]), 1.9 nM; at EGFR L858R/T790M/C797S (setting [9]), 0.5 nM.
`CC1(O)CCN(c2cc(Nc3ccnc(-c4cnn(S(=O)(=O)C5CC5)c4)n3)ncc2C#CC2(F)CCOC2)CC1` (stereo not shown) [Example 435, 1-(2-((2-(1-(Cyclopropylsulfonyl)-1H-pyrazol-4-yl)pyrimidin-4-yl)amino)-5-((3-fluorotetrahydrofuran-3-yl)ethynyl)pyridin-4-yl)-4-methylpiperidin-4-ol]: the IC50 against EGFR wildtype (WT) (IC50 WT (nM), 100 μM ATP) came out at 8720 nM; at EGFR wildtype (WT) (setting [10]), 14.2 nM; against EGFR L858R/C797S (setting [2]), 66.6 nM; on EGFR L858R/C797S (setting [11]) it was 2 nM; against EGFR Del19/C797S (setting [4]) it was 2.9 nM; on EGFR Del19/C797S (setting [12]) it was 1.3 nM. Also, the IC50 on EGFR Del19/T790M/C797S (setting [6]) amounted to 0.2 nM; at EGFR Del19/T790M/C797S (setting [13]), 0.2 nM; against EGFR L858R/T790M/C797S (setting [8]), 0.3 nM; on EGFR L858R/T790M/C797S (setting [14]), 0.1 nM.
`CNC1CCN(c2cc(Nc3ccnc(-c4cnn(S(=O)(=O)C5CC5)c4)n3)ncc2C#Cc2ccn(C)n2)CC1` [Example 140, 2-(1-(Cyclopropylsulfonyl)-1H-pyrazol-4-yl)-N-(5-((1-methyl-1H-pyrazol-3-yl)ethynyl)-4-(4-(methylamino)piperidin-1-yl)pyridin-2-yl)pyrimidin-4-amine]: the IC50 is over 10000 nM on EGFR wildtype (WT) (IC50 WT (nM), 100 μM ATP); 622 nM on EGFR wildtype (WT) (setting [1]); 887 nM against EGFR L858R/C797S (setting [2]); 23.2 nM at EGFR L858R/C797S (setting [3]); 176 nM on EGFR Del19/C797S (setting [4]); 114 nM at EGFR Del19/C797S (setting [5]). In addition, the IC50 against EGFR Del19/T790M/C797S (setting [6]) turned out to be 1.8 nM; on EGFR Del19/T790M/C797S (setting [7]), 1.3 nM; against EGFR L858R/T790M/C797S (setting [8]) it was 6.4 nM; on EGFR L858R/T790M/C797S (setting [9]) it was 1.3 nM.
Turning to `CN(C)CCC1CCCN(c2cc(Nc3ccnc(-c4cnn(S(=O)(=O)C5CC5)c4)n3)ncc2C#Cc2cnn(C)c2)C1` (stereo not shown) [Example 396, 2-(1-(Cyclopropylsulfonyl)-1H-pyrazol-4-yl)-N-(4-(3-(2-(dimethylamino)ethyl)piperidin-1-yl)-5-((1-methyl-1H-pyrazol-4-yl)ethynyl)pyridin-2-yl)pyrimidin-4-amine], the IC50 against EGFR wildtype (WT) (IC50 WT (nM), 100 μM ATP) came to 3390 nM; at EGFR wildtype (WT) (setting [10]), 6.5 nM; on EGFR L858R/C797S (setting [2]) it was 12.2 nM; on EGFR L858R/C797S (setting [11]), 0.6 nM; against EGFR Del19/C797S (setting [4]), 1 nM; on EGFR Del19/C797S (setting [12]), 0.5 nM. The IC50 against EGFR Del19/T790M/C797S (setting [6]) is 0.5 nM; on EGFR Del19/T790M/C797S (setting [13]), 1 nM; on EGFR L858R/T790M/C797S (setting [8]) it was 0.7 nM; at EGFR L858R/T790M/C797S (setting [14]) it was 0.1 nM.
With `Cc1nn(S(=O)(=O)N(C)C)cc1-c1nccc(Nc2cc(N3CCC(C)(CO)CC3)c(C#Cc3cnn(C(F)(F)F)c3)cn2)n1` [Example 272, 4-(4-((4-(4-(Hydroxymethyl)-4-methylpiperidin-1-yl)-5-((1-(trifluoromethyl)-1H-pyrazol-4-yl)ethynyl)pyridin-2-yl)amino)pyrimidin-2-yl)-N, N,3-trimethyl-1H-pyrazole-1-sulfonamide], the IC50 at EGFR wildtype (WT) (setting [15]) is 108 nM; against EGFR wildtype (WT) (IC50 WT (nM), 100 μM ATP), over 10000 nM; on EGFR L858R/C797S (setting [16]), 18.9 nM; on EGFR L858R/C797S (setting [2]) it was 2120 nM; at EGFR Del19/C797S (setting [17]), 51.2 nM; at EGFR Del19/C797S (setting [4]), 81.9 nM. Also, the IC50 at EGFR Del19/T790M/C797S (setting [18]) came to 4 nM; against EGFR Del19/T790M/C797S (setting [6]), 7.1 nM; on EGFR L858R/T790M/C797S (setting [19]), 2.2 nM; on EGFR L858R/T790M/C797S (setting [8]), 3.1 nM.
In the case of `CC1(CO)CCN(c2cc(Nc3ccnc(-c4cnn(S(=O)(=O)C5CC5)c4)n3)ncc2C#Cc2cnn(CCN3CCOCC3)c2)CC1` [Example 232, (1-(2-((2-(1-(Cyclopropylsulfonyl)-1H-pyrazol-4-yl)pyrimidin-4-yl)amino)-5-((1-(2-morpholinoethyl)-1H-pyrazol-4-yl)ethynyl)pyridin-4-yl)-4-methylpiperidin-4-yl)methanol], the IC50 on EGFR wildtype (WT) (IC50 WT (nM), 100 μM ATP) is 719 nM; at EGFR wildtype (WT) (setting [1]), 0.9 nM; on EGFR L858R/C797S (setting [2]), 5.9 nM; at EGFR L858R/C797S (setting [3]) it was 0.2 nM; at EGFR Del19/C797S (setting [4]), 1.1 nM; at EGFR Del19/C797S (setting [5]), 0.4 nM. Besides, the IC50 at EGFR Del19/T790M/C797S (setting [6]) turned out to be 1.3 nM; on EGFR Del19/T790M/C797S (setting [7]), 0.8 nM; against EGFR L858R/T790M/C797S (setting [8]), 1.3 nM; on EGFR L858R/T790M/C797S (setting [9]) it was 0.5 nM.
Take `O=S(=O)(C1CC1)n1cc(-c2nccc(Nc3cc(N4CCC(O)CC4)c(C#Cc4csc(CF)n4)cn3)n2)cn1` [Example 212, 1-(2-((2-(1-(Cyclopropylsulfonyl)-1H-pyrazol-4-yl)pyrimidin-4-yl)amino)-5-((2-(fluoromethyl)thiazol-4-yl)ethynyl)pyridin-4-yl)piperidin-4-ol]: the IC50 is over 10000 nM on EGFR wildtype (WT) (IC50 WT (nM), 100 μM ATP); 97.6 nM on EGFR L858R/C797S (setting [2]); 44.8 nM against EGFR Del19/C797S (setting [4]); 1.5 nM against EGFR Del19/T790M/C797S (setting [6]); 8.9 nM against EGFR L858R/T790M/C797S (setting [8]).
As to `CC1(CO)CCN(c2cc(Nc3ccnc(-c4cnn(S(=O)(=O)C5CC5)c4)n3)ncc2C#CCNC(=O)C(F)(F)F)CC1` [Example 288, N-(3-(6-((2-(1-(Cyclopropylsulfonyl)-1H-pyrazol-4-yl)pyrimidin-4-yl)amino)-4-(4-(hydroxymethyl)-4-methylpiperidin-1-yl)pyridin-3-yl)prop-2-yn-1-yl)-2,2,2-trifluoroacetamide], the IC50 against EGFR wildtype (WT) (IC50 WT (nM), 100 μM ATP) worked out at 7820 nM; on EGFR L858R/C797S (setting [2]) it was 21.6 nM; at EGFR Del19/C797S (setting [4]) it was 3.6 nM; at EGFR Del19/T790M/C797S (setting [6]), 0.2 nM; against EGFR L858R/T790M/C797S (setting [8]), 0.2 nM.
In the case of `O=S(=O)(C1CC1)n1cc(-c2nccc(Nc3cc(N[C@H]4CCC[C@H](O)C4)c(C#Cc4ccc(CN5CCOCC5)cc4)cn3)n2)cn1` [Example 161, (1 S,3S)-3-((2-((2-(1-(Cyclopropylsulfonyl)-1H-pyrazol-4-yl)pyrimidin-4-yl)amino)-5-((4-(morpholinomethyl)phenyl)ethynyl)pyridin-4-yl)amino)cyclohexan-1-ol], the IC50 is 650 nM at EGFR wildtype (WT) (setting [15]); over 10000 nM on EGFR wildtype (WT) (IC50 WT (nM), 100 μM ATP); 21.6 nM at EGFR L858R/C797S (setting [16]); 547 nM against EGFR L858R/C797S (setting [2]); 25.5 nM on EGFR Del19/C797S (setting [17]); 38.2 nM at EGFR Del19/C797S (setting [4]). Further, the IC50 on EGFR Del19/T790M/C797S (setting [18]) stood at 5.5 nM; on EGFR Del19/T790M/C797S (setting [6]), 8.8 nM; on EGFR L858R/T790M/C797S (setting [19]), 3.2 nM; on EGFR L858R/T790M/C797S (setting [8]), 10.6 nM.
`CN1CCC2(CC1)CCN(c1cc(Nc3ccnc(-c4cnn(S(=O)(=O)C5CC5)c4)n3)ncc1C#Cc1cnn(CC(F)F)c1)CC2` [Example 322, 2-(1-(Cyclopropylsulfonyl)-1H-pyrazol-4-yl)-N-(5-((1-(2,2-difluoroethyl)-1H-pyrazol-4-yl)ethynyl)-4-(9-methyl-3,9-diazaspiro[5.5]undecan-3-yl)pyridin-2-yl)pyrimidin-4-amine]: the IC50 stood at 4540 nM on EGFR wildtype (WT) (IC50 WT (nM), 100 μM ATP); 18 nM against EGFR L858R/C797S (setting [2]); 6 nM against EGFR Del19/C797S (setting [4]); 0.5 nM against EGFR Del19/T790M/C797S (setting [6]); 0.4 nM against EGFR L858R/T790M/C797S (setting [8]).
